# Experiments:
# Experiment in all cases: NCI-60 one-dose screen
# Format in all cases: cell-based
# LOX IMVI = conditions: Homo sapiens, Melanoma panel, single dose 10^−5 M, read-out: Growth inhibition %
# SK-OV-3 = conditions: Homo sapiens; SK-OV-3, Ovarian Cancer panel; single dose 10^−5 M; read-out: Growth inhibition %
# NCI-H322M = conditions: Homo sapiens, Non-small cell lung panel, single dose 10^−5 M, read-out: Growth inhibition %
# SF-295 = conditions: Homo sapiens; SF-295, CNS Cancer panel; single dose 10^−5 M; read-out: Growth inhibition %
# OVCAR-5 = conditions: Homo sapiens; OVCAR-5, Ovarian Cancer panel; single dose 10^−5 M; read-out: Growth inhibition %
# RXF 393 = conditions: Homo sapiens; RXF 393, Renal Cancer panel; single dose 10^−5 M; read-out: Growth inhibition %
# NCI-H23 = conditions: Homo sapiens; NCI-H23, Non-small cell lung panel; single dose 10^−5 M; read-out: Growth inhibition %
# SN12C = conditions: Homo sapiens, Renal Cancer panel, single dose 10^−5 M, read-out: Growth inhibition %
# MCF7 = conditions: Homo sapiens; MCF7, Breast Cancer panel; single dose 10^−5 M; read-out: Growth inhibition %
# A549/ATCC = conditions: Homo sapiens, Non-small cell lung panel, single dose 10^−5 M, read-out: Growth inhibition %
# NCI/ADR-RES = conditions: Homo sapiens, Ovarian Cancer panel, single dose 10^−5 M, read-out: Growth inhibition %
# A498 = conditions: Homo sapiens; A498, Renal Cancer panel; single dose 10^−5 M; read-out: Growth inhibition %
# MALME-3M = conditions: Homo sapiens, Melanoma panel, single dose 10^−5 M, read-out: Growth inhibition %
# HOP-92 = conditions: Homo sapiens; HOP-92, Non-small cell lung panel; single dose 10^−5 M; read-out: Growth inhibition %
# U251 = conditions: Homo sapiens, U-251; U251, CNS Cancer panel; single dose 10^−5 M; read-out: Growth inhibition %
# HCT-116 = conditions: Homo sapiens, read-out: Growth inhibition %
# SK-MEL-2 = conditions: Homo sapiens; SK-MEL-2, Melanoma panel; single dose 10^−5 M; read-out: Growth inhibition %
# SNB-19 = conditions: Homo sapiens; SNB-19, CNS Cancer panel; single dose 10^−5 M; read-out: Growth inhibition %
# HCC-2998 = conditions: Homo sapiens; HCC-2998, Colon Cancer panel; single dose 10^−5 M; read-out: Growth inhibition %
# PC-3 = conditions: Homo sapiens; PC-3, Prostate Cancer panel; single dose 10^−5 M; read-out: Growth inhibition %
# SF-539 = conditions: Homo sapiens; SF-539, CNS Cancer panel; single dose 10^−5 M; read-out: Growth inhibition %
# UACC-62 = conditions: Homo sapiens; UACC-62, Melanoma panel; single dose 10^−5 M; read-out: Growth inhibition %
# HOP-62 = conditions: Homo sapiens; HOP-62, Non-small cell lung panel; single dose 10^−5 M; read-out: Growth inhibition %
# TK-10 = conditions: Homo sapiens; TK-10, Renal Cancer panel; single dose 10^−5 M; read-out: Growth inhibition %
# NCI-H460 = conditions: Homo sapiens; NCI-H460, Non-small cell lung panel; single dose 10^−5 M; read-out: Growth inhibition %
# OVCAR-4 = conditions: Homo sapiens; OVCAR-4, Ovarian Cancer panel; single dose 10^−5 M; read-out: Growth inhibition %
# UACC-257 = conditions: Homo sapiens; UACC-257, Melanoma panel; single dose 10^−5 M; read-out: Growth inhibition %
# MDA-MB-468 = conditions: Homo sapiens; MDA-MB-468, Breast Cancer panel; single dose 10^−5 M; read-out: Growth inhibition %
# NCI-H522 = conditions: Homo sapiens; NCI-H522, Non-small cell lung panel; single dose 10^−5 M; read-out: Growth inhibition %
# T-47D = conditions: Homo sapiens, T47D, Breast Cancer panel, single dose 10^−5 M, read-out: Growth inhibition %
# M14 = conditions: Homo sapiens; M14, Melanoma panel; single dose 10^−5 M; read-out: Growth inhibition %
# RPMI-8226 = conditions: Homo sapiens; RPMI-8226, Leukemia panel; single dose 10^−5 M; read-out: Growth inhibition %
SMILES,inhibition at 10 µM (LOX IMVI) [%],inhibition at 10 µM (SK-OV-3) [%],inhibition at 10 µM (NCI-H322M) [%],inhibition at 10 µM (SF-295) [%],inhibition at 10 µM (OVCAR-5) [%],inhibition at 10 µM (RXF 393) [%],inhibition at 10 µM (NCI-H23) [%],inhibition at 10 µM (SN12C) [%],inhibition at 10 µM (MCF7) [%],inhibition at 10 µM (A549/ATCC) [%],inhibition at 10 µM (NCI/ADR-RES) [%],inhibition at 10 µM (A498) [%],inhibition at 10 µM (MALME-3M) [%],inhibition at 10 µM (HOP-92) [%],inhibition at 10 µM (U251) [%],inhibition at 10 µM (HCT-116) [%],inhibition at 10 µM (SK-MEL-2) [%],inhibition at 10 µM (SNB-19) [%],inhibition at 10 µM (HCC-2998) [%],inhibition at 10 µM (PC-3) [%],further results
"c1ccc(CCNc2c3ccccc3nc3ccccc23)cc1 [Compound 23, Acridin-9-yl-phenethyl-amine]",82.4,37.4,53.4,65.1,46.6,64.7,61.4,66.9,87.8,67.3,66.5,105,42.9,102,58.9,83.5,13.7,60.5,58.6,64.3,inhibition at 10 µM (SF-539): 71.9%; inhibition at 10 µM (UACC-62): 46.8%; inhibition at 10 µM (HOP-62): 44.9%; inhibition at 10 µM (TK-10): 46.8%; inhibition at 10 µM (NCI-H460): 84.7%; inhibition at 10 µM (OVCAR-4): 65%; inhibition at 10 µM (UACC-257): 44.8%; inhibition at 10 µM (MDA-MB-468): 111%; inhibition at 10 µM (NCI-H522): 60.2%; inhibition at 10 µM (T-47D): 51.1%; inhibition at 10 µM (M14): 57.3%; inhibition at 10 µM (RPMI-8226): 80.5%
"c1csc(-c2ccc(CNc3c4ccccc4nc4ccccc34)cc2)c1 [Compound 24, Acridin-9-yl-(4-thiophen-2-yl-benzyl)-amine]",191,35,49.4,84.2,32.9,114,61.8,36.8,163,73.3,88.8,102,182,102,173,183,19.2,53.8,187,76,inhibition at 10 µM (SF-539): 87.5%; inhibition at 10 µM (UACC-62): 35.5%; inhibition at 10 µM (HOP-62): 45.4%; inhibition at 10 µM (TK-10): 34.9%; inhibition at 10 µM (NCI-H460): 87.1%; inhibition at 10 µM (OVCAR-4): 84.7%; inhibition at 10 µM (UACC-257): 137%; inhibition at 10 µM (MDA-MB-468): 173%; inhibition at 10 µM (NCI-H522): 71.1%; inhibition at 10 µM (T-47D): 28.1%; inhibition at 10 µM (M14): 174%; inhibition at 10 µM (RPMI-8226): 144%

# — paper PMC9866191, “Novel 9-Benzylaminoacridine Derivatives as Dual Inhibitors of Phosphodiesterase 5 and Topoisomerase II for the Treatment of Colon Cancer” (Molecules, 2023)
